Test results: PubChem BioAssay (NCI)
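96-well plates; 48 h exposure; 5 concentrations. Endpoints by linear interpolation between flanking doses. Not reached: highest tested concentration assigned. GI50: concentration for 50% inhibition of growth. TGI is the concentration that stops growth completely.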

Key:
Assay in all cases: inhibition of tumour cell growth, NCI panel, 48 h
NCI-H460 lung = tested on: NCI-H460 lung
OVCAR-5 ovarian = tested on: OVCAR-5 ovarian
KM12 colon = tested on: KM12 colon
SW-620 colon = tested on: SW-620 colon
COLO 205 colon = tested on: COLO 205 colon
MOLT-4 leukemia = tested on: MOLT-4 leukemia
MDA-MB-435 = tested on: MDA-MB-435
SNB-75 CNS = tested on: SNB-75 CNS
HCC-2998 colon = tested on: HCC-2998 colon
MCF7 breast = tested on: MCF7 breast
MALME-3M melanoma = tested on: MALME-3M melanoma
OVCAR-4 ovarian = tested on: OVCAR-4 ovarian
NCI/ADR-RES ovarian = tested on: NCI/ADR-RES ovarian
NCI-H23 lung = tested on: NCI-H23 lung
SF-295 CNS = tested on: SF-295 CNS
BT-549 breast = tested on: BT-549 breast
K-562 leukemia = tested on: K-562 leukemia
SK-MEL-28 melanoma = tested on: SK-MEL-28 melanoma
HOP-92 NSCLC = tested on: HOP-92 NSCLC
M14 melanoma = tested on: M14 melanoma
A549 NSCLC = tested on: A549 NSCLC
786-0 renal = tested on: 786-0 renal
A498 renal = tested on: A498 renal
MDA-MB-231 breast = tested on: MDA-MB-231 breast
HOP-62 NSCLC = tested on: HOP-62 NSCLC
SF-539 CNS = tested on: SF-539 CNS
TK-10 renal = tested on: TK-10 renal
PC-3 prostate = tested on: PC-3 prostate
OVCAR-8 ovarian = tested on: OVCAR-8 ovarian
SR leukemia = tested on: SR leukemia
HCT-15 colon = tested on: HCT-15 colon
CAKI-1 renal = tested on: CAKI-1 renal
CCRF-CEM leukemia = tested on: CCRF-CEM leukemia
SF-268 CNS = tested on: SF-268 CNS
SK-MEL-5 melanoma = tested on: SK-MEL-5 melanoma
HL-60(TB) leukemia = tested on: HL-60(TB) leukemia
IGROV1 ovarian = tested on: IGROV1 ovarian
EKVX NSCLC = tested on: EKVX NSCLC
LOX IMVI melanoma = tested on: LOX IMVI melanoma
SK-MEL-2 melanoma = tested on: SK-MEL-2 melanoma
UACC-62 melanoma = tested on: UACC-62 melanoma
UO-31 renal = tested on: UO-31 renal
OVCAR-3 ovarian = tested on: OVCAR-3 ovarian
ACHN renal = tested on: ACHN renal
NCI-H522 lung = tested on: NCI-H522 lung
HCT-116 colon = tested on: HCT-116 colon
NCI-H226 lung = tested on: NCI-H226 lung
UACC-257 melanoma = tested on: UACC-257 melanoma
SNB-19 CNS = tested on: SNB-19 CNS
RPMI-8226 leukemia = tested on: RPMI-8226 leukemia
T-47D breast = tested on: T-47D breast
HT29 colon = tested on: HT29 colon
RXF 393 renal = tested on: RXF 393 renal
SN12C renal = tested on: SN12C renal
DU-145 prostate = tested on: DU-145 prostate
U251 CNS = tested on: U251 CNS
SK-OV-3 ovarian = tested on: SK-OV-3 ovarian

C=C(C)[C@@H]1CC[C@]2(CNCCO)CC[C@]3(C)[C@H](CC[C@@H]4[C@@]5(C)CCC(N)[C@@](C)(CO)[C@@H]5CC[C@]43C)[C@@H]12 (some centres undefined)
GI50 (NCI-H460 lung): 1770 nM
TGI (NCI-H460 lung): 3.36 µM
GI50 (OVCAR-5 ovarian): 2300 nM
TGI (OVCAR-5 ovarian): 4.79 µM
GI50 (KM12 colon): 1710 nM
TGI (KM12 colon): 3.21 µM
GI50 (SW-620 colon): 1930 nM
TGI (SW-620 colon): 3.88 µM
GI50 (COLO 205 colon): 1590 nM
TGI (COLO 205 colon): 3.08 µM
GI50 (MOLT-4 leukemia): 1560 nM
TGI (MOLT-4 leukemia): 3.85 µM
GI50 (MDA-MB-435): 1750 nM
TGI (MDA-MB-435): 3.25 µM
GI50 (SNB-75 CNS): 1580 nM
TGI (SNB-75 CNS): 3.1 µM
GI50 (HCC-2998 colon): 1830 nM
TGI (HCC-2998 colon): 3.35 µM
GI50 (MCF7 breast): 1600 nM
TGI (MCF7 breast): 3.17 µM
GI50 (MALME-3M melanoma): 1800 nM
TGI (MALME-3M melanoma): 3.31 µM
GI50 (OVCAR-4 ovarian): 1900 nM
TGI (OVCAR-4 ovarian): 3.99 µM
GI50 (NCI/ADR-RES ovarian): 12.9 µM
TGI (NCI/ADR-RES ovarian): 26.7 µM
GI50 (NCI-H23 lung): 2140 nM
TGI (NCI-H23 lung): 3.95 µM
GI50 (SF-295 CNS): 1760 nM
TGI (SF-295 CNS): 3.33 µM
GI50 (BT-549 breast): 1740 nM
TGI (BT-549 breast): 3.33 µM
GI50 (K-562 leukemia): 1500 nM
TGI (K-562 leukemia): 3.7 µM
GI50 (SK-MEL-28 melanoma): 1840 nM
TGI (SK-MEL-28 melanoma): 3.38 µM
GI50 (HOP-92 NSCLC): 1430 nM
TGI (HOP-92 NSCLC): 2940 nM
GI50 (M14 melanoma): 1750 nM
TGI (M14 melanoma): 3.31 µM
GI50 (A549 NSCLC): 1800 nM
TGI (A549 NSCLC): 3.38 µM
GI50 (786-0 renal): 1680 nM
TGI (786-0 renal): 3.11 µM
GI50 (A498 renal): 1360 nM
TGI (A498 renal): 2850 nM
GI50 (MDA-MB-231 breast): 1860 nM
TGI (MDA-MB-231 breast): 3.44 µM
GI50 (HOP-62 NSCLC): 1790 nM
TGI (HOP-62 NSCLC): 3.28 µM
GI50 (SF-539 CNS): 1770 nM
TGI (SF-539 CNS): 3.27 µM
GI50 (TK-10 renal): 1740 nM
TGI (TK-10 renal): 3.2 µM
GI50 (PC-3 prostate): 1730 nM
TGI (PC-3 prostate): 3.62 µM
GI50 (OVCAR-8 ovarian): 1760 nM
TGI (OVCAR-8 ovarian): 3.39 µM
GI50 (SR leukemia): 1680 nM
TGI (SR leukemia): 4.08 µM
GI50 (HCT-15 colon): 1800 nM
TGI (HCT-15 colon): 3.57 µM
GI50 (CAKI-1 renal): 2850 nM
TGI (CAKI-1 renal): 7.82 µM
GI50 (CCRF-CEM leukemia): 2170 nM
TGI (CCRF-CEM leukemia): 5.3 µM
GI50 (SF-268 CNS): 1750 nM
TGI (SF-268 CNS): 3.46 µM
GI50 (SK-MEL-5 melanoma): 1740 nM
TGI (SK-MEL-5 melanoma): 3.14 µM
GI50 (HL-60(TB) leukemia): 1330 nM
TGI (HL-60(TB) leukemia): 3.46 µM
GI50 (IGROV1 ovarian): 1980 nM
TGI (IGROV1 ovarian): 4.09 µM
GI50 (EKVX NSCLC): 1750 nM
TGI (EKVX NSCLC): 3.38 µM
GI50 (LOX IMVI melanoma): 1640 nM
TGI (LOX IMVI melanoma): 3.1 µM
GI50 (SK-MEL-2 melanoma): 1770 nM
TGI (SK-MEL-2 melanoma): 3.27 µM
GI50 (UACC-62 melanoma): 1770 nM
TGI (UACC-62 melanoma): 3.19 µM
GI50 (UO-31 renal): 1650 nM
TGI (UO-31 renal): 3.07 µM
GI50 (OVCAR-3 ovarian): 1750 nM
TGI (OVCAR-3 ovarian): 3.29 µM
GI50 (ACHN renal): 1990 nM
TGI (ACHN renal): 3.61 µM
GI50 (NCI-H522 lung): 1950 nM
TGI (NCI-H522 lung): 3.69 µM
GI50 (HCT-116 colon): 1550 nM
TGI (HCT-116 colon): 2960 nM
GI50 (NCI-H226 lung): 2130 nM
TGI (NCI-H226 lung): 5.48 µM
GI50 (UACC-257 melanoma): 1850 nM
TGI (UACC-257 melanoma): 3.39 µM
GI50 (SNB-19 CNS): 1830 nM
TGI (SNB-19 CNS): 3.36 µM
GI50 (RPMI-8226 leukemia): 1650 nM
TGI (RPMI-8226 leukemia): 3.91 µM
GI50 (T-47D breast): 2070 nM
TGI (T-47D breast): 3.97 µM
GI50 (HT29 colon): 1460 nM
TGI (HT29 colon): 3.18 µM
GI50 (RXF 393 renal): 1290 nM
TGI (RXF 393 renal): 2620 nM
GI50 (SN12C renal): 1750 nM
TGI (SN12C renal): 3.41 µM
GI50 (DU-145 prostate): 1650 nM
TGI (DU-145 prostate): 3.18 µM
GI50 (U251 CNS): 1690 nM
TGI (U251 CNS): 3.16 µM
GI50 (SK-OV-3 ovarian): 1950 nM
TGI (SK-OV-3 ovarian): 3.41 µM
